Test results published in article PMC10610038, “New Insights into the Enhancement of Adventitious Root Formation Using N,N′-Bis(2,3-methylenedioxyphenyl)urea” (Plants, 2023).

Assays:
[1] = biological target: T1, ZmCKX1 (cytokinin oxidase/dehydrogenase) (Zea mays, UniProt Q9T0N8); experiment: DCPIP reduction assay with purified ZmCKX1, trans-zeatin substrate; Lineweaver-Burk; Ki from IC50 ([…]) by Cheng-Prusoff; type: biochemical
T1 construct: gene CKX1

[2] = biological target: T1, ZmCKX1 (cytokinin oxidase/dehydrogenase); experiment: DCPIP reduction assay with purified ZmCKX1, trans-zeatin substrate; Ki from IC50 ([…]) by Cheng-Prusoff; type: biochemical

T1 sequence (Q9T0N8 19-534): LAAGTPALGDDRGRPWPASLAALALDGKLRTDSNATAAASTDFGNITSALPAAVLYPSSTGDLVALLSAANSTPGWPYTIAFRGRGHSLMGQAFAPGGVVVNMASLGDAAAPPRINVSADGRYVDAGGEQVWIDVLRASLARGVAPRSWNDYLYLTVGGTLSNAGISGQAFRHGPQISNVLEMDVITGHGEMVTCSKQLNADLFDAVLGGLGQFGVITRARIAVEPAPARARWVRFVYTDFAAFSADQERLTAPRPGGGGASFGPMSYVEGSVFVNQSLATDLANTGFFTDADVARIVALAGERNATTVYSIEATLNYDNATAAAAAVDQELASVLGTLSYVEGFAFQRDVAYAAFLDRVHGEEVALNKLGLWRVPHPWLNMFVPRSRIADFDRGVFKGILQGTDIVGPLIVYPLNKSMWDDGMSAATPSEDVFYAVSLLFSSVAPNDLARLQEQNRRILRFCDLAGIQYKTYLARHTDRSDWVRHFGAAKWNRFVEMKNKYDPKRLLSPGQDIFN

| Ki [1] [nM] | SMILES | Ki [2] [nM] |
| --- | --- | --- |
| 1600 | O=C(Nc1cccc2c1OCO2)Nc1cccc2c1OCO2 [2,3-MDPU, N,N′-bis-(2,3-methylenedioxyphenyl)urea] |  |
|  | O=C(Nc1ccccc1)Nc1cnns1 [TDZ, N-phenyl-N′-(1,2,3-thiadiazol-5-yl)urea] | 1400 |
